Experimental findings from the supplement of paper PMC5908809 are described below.

Common to all, as to assay: relative IC50 (inflection point of fitted viability curve, relative to fitted max inhibition); higher = less sensitive
Conditions in all cases: 72 h

The subject of experiment [1] is normal primary NK cells, pool 1 (3 donors) (IL-2 2.5 ng/mL). Here is the method: (§1)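 Drug sensitivity and resistance testing: 5 concentrations over a 10,000-fold range, 72 h at 37 °C, viability by CellTiter-Glo normalised to DMSO and benzethonium chloride controls. IC50 is the inflection point of a logistic fit (min fixed at 0, max fitted), so it is relative to the fitted maximal inhibition. Kept only where fitted max inhibition is at least 50%.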

Another experiment relates to DERL-7 (IL-2 2.5 ng/mL). Here is the method: as §1
Another experiment has as its system NK-92 (IL-2 2.5 ng/mL). As for the experimental part: as §1
In a further experiment the test system is KAI3 (IL-2 2.5 ng/mL). Here is the method: as §1
A further experiment relates to YT (IL-2 2.5 ng/mL). As for the experimental part:
as §1

In another experiment the test system is NK-YS (IL-2 2.5 ng/mL). As for the experimental part: as §1
The test system of experiment [2] is normal primary NK cells, pool 3 (3 donors) (IL-2 2.5 ng/mL). Here is the method:
as §1

The test system of a further experiment is IMC-1 (IL-2 20 ng/mL). Here is the method: as §1
Experiment [3] concerns normal primary NK cells, pool 2 (3 donors) (IL-2 2.5 ng/mL). As for the experimental part: as §1
In the next experiment the test system is SNK-6 (IL-2 2.5 ng/mL). As for the experimental part:
as §1

Another experiment has as its system NKL (IL-2 2.5 ng/mL). As for the experimental part: as §1
The next experiment relates to KHYG-1 (IL-2 2.5 ng/mL). As for the experimental part:
as §1

Experiment [4] has as its system normal primary NK cells, pool 1 (3 donors), resting (IL-2 0 ng/mL). Here is the method:
as §1

With `Cc1nc(N)sc1-c1ccnc(Nc2ccc(N3CCOCC3)cc2)n1` [CYC-116], the “relative IC50” value in experiment [1] is 1810 nM; in the experiment with DERL-7 (IL-2 2.5 ng/mL) it was 538 nM; in the experiment with NK-92 (IL-2 2.5 ng/mL), 889 nM; in the experiment with KAI3 (IL-2 2.5 ng/mL), 1100 nM; in the experiment with YT (IL-2 2.5 ng/mL), 1400 nM; in the experiment on NK-YS (IL-2 2.5 ng/mL) it was 238 nM. The “relative IC50” value in [2] turned out to be 2800 nM; with IMC-1 (IL-2 20 ng/mL), 913 nM; in experiment [3] it was 1600 nM; with SNK-6 (IL-2 2.5 ng/mL), 171 nM; in the experiment with NKL (IL-2 2.5 ng/mL), 989 nM; in the experiment with KHYG-1 (IL-2 2.5 ng/mL), 599 nM.
`Cn1cc(CNCC2CCN(c3ncc(C(=O)NO)cn3)CC2)c2ccccc21` [Quisinostat]: the “relative IC50” value amounted to 7.78 nM in experiment [1]; 10.6 nM in the experiment with DERL-7 (IL-2 2.5 ng/mL); 39.5 nM in the experiment on NK-92 (IL-2 2.5 ng/mL); 14.7 nM with KAI3 (IL-2 2.5 ng/mL); 58.3 nM in the experiment on YT (IL-2 2.5 ng/mL); 20.3 nM with NK-YS (IL-2 2.5 ng/mL). Besides, the “relative IC50” value in [4] turned out to be 2.39 nM; in [2], 13.1 nM; in the experiment with IMC-1 (IL-2 20 ng/mL) it was 35.8 nM; in experiment [3], 5.99 nM; with SNK-6 (IL-2 2.5 ng/mL), 90.1 nM; in the experiment on NKL (IL-2 2.5 ng/mL), 11 nM. Also, the “relative IC50” value with KHYG-1 (IL-2 2.5 ng/mL) worked out at 21.4 nM.
Regarding `Cc1nc(Nc2n[nH]c3c2CN(C(=O)N[C@H](CN(C)C)c2ccccc2)C3(C)C)c2sccc2n1`, the “relative IC50” value came out at 1420 nM in [1]; 57.3 nM in the experiment with DERL-7 (IL-2 2.5 ng/mL); 431 nM with NK-92 (IL-2 2.5 ng/mL); 243 nM with KAI3 (IL-2 2.5 ng/mL); 266 nM with YT (IL-2 2.5 ng/mL); 83.5 nM in the experiment on NK-YS (IL-2 2.5 ng/mL). The “relative IC50” value turned out to be 1300 nM in experiment [4]; 1590 nM in experiment [2]; 4.06 nM with IMC-1 (IL-2 20 ng/mL); 575 nM in experiment [3]; 1340 nM with SNK-6 (IL-2 2.5 ng/mL); 503 nM in the experiment with NKL (IL-2 2.5 ng/mL). Moreover, the “relative IC50” value in the experiment on KHYG-1 (IL-2 2.5 ng/mL) was found to be 33.1 nM.
With `NC(=O)Nc1sc(-c2ccc(F)cc2)cc1C(N)=O` [TPCA-1], the “relative IC50” value in experiment [1] is 997 nM; in the experiment with DERL-7 (IL-2 2.5 ng/mL), 367 nM; in the experiment with NK-92 (IL-2 2.5 ng/mL), 860 nM; in the experiment with KAI3 (IL-2 2.5 ng/mL), 218 nM; in the experiment on YT (IL-2 2.5 ng/mL) it was 912 nM; with NK-YS (IL-2 2.5 ng/mL) it was 1440 nM. Moreover, the “relative IC50” value came out at 2310 nM in experiment [4]; 1020 nM in experiment [2]; 7190 nM in the experiment on IMC-1 (IL-2 20 ng/mL); 658 nM in [3]; 514 nM in the experiment with SNK-6 (IL-2 2.5 ng/mL); 274 nM with NKL (IL-2 2.5 ng/mL). Also, the “relative IC50” value with KHYG-1 (IL-2 2.5 ng/mL) came out at 381 nM.
Turning to `Cn1cncc1[C@@](N)(c1ccc(Cl)cc1)c1ccc2c(c1)c(-c1cccc(Cl)c1)cc(=O)n2C` [Tipifarnib], the “relative IC50” value in experiment [1] was 1110 nM; in the experiment with DERL-7 (IL-2 2.5 ng/mL), 91.8 nM; in the experiment on NK-92 (IL-2 2.5 ng/mL), 270 nM; in the experiment on KAI3 (IL-2 2.5 ng/mL), 94.8 nM; in the experiment with YT (IL-2 2.5 ng/mL), 349 nM; in the experiment on NK-YS (IL-2 2.5 ng/mL), 61.6 nM. Moreover, the “relative IC50” value worked out at 264 nM in [4]; 723 nM in experiment [2]; 1880 nM with IMC-1 (IL-2 20 ng/mL); 1580 nM in [3]; 74.1 nM with SNK-6 (IL-2 2.5 ng/mL); 401 nM in the experiment with NKL (IL-2 2.5 ng/mL). In the experiment with KHYG-1 (IL-2 2.5 ng/mL), the “relative IC50” value came out at 35.2 nM.
For `O=C1c2c(O)ccc(O)c2C(=O)c2c(NCCNCCO)ccc(NCCNCCO)c21` [Mitoxantrone], the “relative IC50” value was 322 nM in [1]; 80.5 nM with DERL-7 (IL-2 2.5 ng/mL); 91 nM in the experiment on KAI3 (IL-2 2.5 ng/mL); 114 nM in the experiment with NK-YS (IL-2 2.5 ng/mL); 151 nM in experiment [4]; 170 nM with IMC-1 (IL-2 20 ng/mL). For the same compound, the “relative IC50” value in [3] came out at 185 nM; in the experiment with SNK-6 (IL-2 2.5 ng/mL), 34.8 nM; in the experiment on NKL (IL-2 2.5 ng/mL), 32.2 nM; in the experiment with KHYG-1 (IL-2 2.5 ng/mL), 158 nM.
Consider `Cc1cc(Nc2cc(N3CCN(C)CC3)nc(/C=C/c3ccccc3)n2)n[nH]1` [ENMD-2076], for which the “relative IC50” value in experiment [1] was found to be 1500 nM; with DERL-7 (IL-2 2.5 ng/mL) it was 497 nM; in the experiment with NK-92 (IL-2 2.5 ng/mL), 901 nM; in the experiment with KAI3 (IL-2 2.5 ng/mL), 256 nM; in the experiment with YT (IL-2 2.5 ng/mL) it was 1360 nM; in the experiment on NK-YS (IL-2 2.5 ng/mL), 293 nM. The “relative IC50” value in [4] is 1710 nM; in [2] it was 1970 nM; in the experiment with IMC-1 (IL-2 20 ng/mL), 573 nM; in experiment [3], 1290 nM; with SNK-6 (IL-2 2.5 ng/mL), 541 nM; with NKL (IL-2 2.5 ng/mL), 503 nM. The “relative IC50” value in the experiment on KHYG-1 (IL-2 2.5 ng/mL) was determined as 482 nM.
As for `CN1CCc2c(c3ccccc3n2Cc2ccc(C(=O)NO)cc2)C1` [Tubastatin A], the “relative IC50” value stood at 1790 nM in [1]; 3400 nM in the experiment on DERL-7 (IL-2 2.5 ng/mL); 1580 nM in the experiment with NK-92 (IL-2 2.5 ng/mL); 1170 nM in the experiment with KAI3 (IL-2 2.5 ng/mL); 2420 nM in the experiment with YT (IL-2 2.5 ng/mL); 1810 nM in the experiment on NK-YS (IL-2 2.5 ng/mL). The “relative IC50” value was found to be 1510 nM in [4]; 3270 nM with IMC-1 (IL-2 20 ng/mL); 1430 nM with SNK-6 (IL-2 2.5 ng/mL); 1030 nM in the experiment on NKL (IL-2 2.5 ng/mL); 2550 nM with KHYG-1 (IL-2 2.5 ng/mL).
As for `COc1cc(N2CCN(C)CC2)ccc1Nc1nccc(-c2cn(C)c3cnccc23)n1` [AZ191], the “relative IC50” value came to 3430 nM in experiment [1]; 1650 nM in the experiment on DERL-7 (IL-2 2.5 ng/mL); 3940 nM in the experiment with NK-92 (IL-2 2.5 ng/mL); 2510 nM in the experiment with KAI3 (IL-2 2.5 ng/mL); 2440 nM with NK-YS (IL-2 2.5 ng/mL); 4320 nM in [4]. In addition, the “relative IC50” value came out at 3870 nM in experiment [2]; 2910 nM in the experiment with IMC-1 (IL-2 20 ng/mL); 3700 nM in experiment [3]; 3570 nM in the experiment on SNK-6 (IL-2 2.5 ng/mL); 2340 nM in the experiment on NKL (IL-2 2.5 ng/mL); 1890 nM in the experiment on KHYG-1 (IL-2 2.5 ng/mL).
For `CO[C@@H]1[C@H](N(C)C(=O)c2ccccc2)C[C@H]2O[C@]1(C)n1c3ccccc3c3c4c(c5c6ccccc6n2c5c31)C(=O)NC4` [Midostaurin], the “relative IC50” value in experiment [1] turned out to be 188 nM; with DERL-7 (IL-2 2.5 ng/mL) it was 217 nM; in the experiment with NK-92 (IL-2 2.5 ng/mL), 330 nM; in the experiment on KAI3 (IL-2 2.5 ng/mL), 175 nM; with YT (IL-2 2.5 ng/mL), 431 nM; in the experiment on NK-YS (IL-2 2.5 ng/mL), 338 nM. Also, the “relative IC50” value turned out to be 1050 nM in [4]; 594 nM in experiment [2]; 486 nM with IMC-1 (IL-2 20 ng/mL); 438 nM in experiment [3]; 115 nM in the experiment on SNK-6 (IL-2 2.5 ng/mL); 127 nM in the experiment on NKL (IL-2 2.5 ng/mL). Further, in the experiment with KHYG-1 (IL-2 2.5 ng/mL), the “relative IC50” value came to 186 nM.
